For six molecules, IC50 results are on record in US9249129B2, “Morpholino substituted urea derivatives as mTOR inhibitors” (CELLZOME LIMITED, priority 2010, dated 2016).

Where only a bound is given, the exact number is not on record here.

What all share (assay): kinobeads assay with mass spectrometry detection of kinases (kinase selectivity profile)
What all share (assay type): binding

Assay [1] deals with T1, kinases (kinome) (Homo sapiens, UniProt O60885).
T1 construct: determined in kinobeads assays with mass spectrometry detection of kinases as described previously; endogenous in cells; host or cells: cell lysate
Particulars: BRD4 (Atypical), IPI00440727. The source says:
(§1) The protein kinase complement of the human genome (the kinome) was described previously (Manning et al., 2002. Science 298(5600):1912-1934). Sequence accession numbers are defined by the International Protein Index (IPI) (Kersey et al., 2004. Proteomics 4(7):1985-1988).

Assay [2] deals with T2, kinases (kinome) (Homo sapiens, UniProt O75716).
T2 construct: determined in kinobeads assays with mass spectrometry detection of kinases as described previously; endogenous in cells; host or cells: cell lysate
The conditions noted are these: MPSK1 (Other), IPI00915837.
Excerpt: as §1

In assay [3] the target is T3, kinases (kinome) (Homo sapiens, UniProt P06241).
T3 construct: determined in kinobeads assays with mass spectrometry detection of kinases as described previously; endogenous in cells; host or cells: cell lysate
Particulars: FYN (TK), IPI00219012.
Excerpt: as §1

Assay [4] has as its target T4, kinases (kinome) (Homo sapiens, UniProt P36894).
T4 construct: determined in kinobeads assays with mass spectrometry detection of kinases as described previously; endogenous in cells; host or cells: cell lysate
Particulars: BMPR1A (TKL), IPI00005731.
Excerpt: as §1

Assay [5] addresses T5, kinases (kinome) (Homo sapiens, UniProt P49841).
T5 construct: determined in kinobeads assays with mass spectrometry detection of kinases as described previously; endogenous in cells; host or cells: cell lysate
The conditions noted are these: GSK3B (CMGC), IPI00216190.
Excerpt: as §1

The target of assay [6] is T6, kinases (kinome) (Homo sapiens, UniProt P50613).
T6 construct: determined in kinobeads assays with mass spectrometry detection of kinases as described previously; endogenous in cells; host or cells: cell lysate
The conditions noted are these: CDK7 (CMGC), IPI00000685.
Excerpt: as §1

For assay [7], the target named is T7, kinases (kinome) (Homo sapiens, UniProt P53667).
T7 construct: determined in kinobeads assays with mass spectrometry detection of kinases as described previously; endogenous in cells; host or cells: cell lysate
Particulars: LIMK1 (TKL), IPI00291702.
Excerpt: as §1

Assay [8] addresses T8, kinases (kinome) (Homo sapiens, UniProt Q13315).
T8 construct: determined in kinobeads assays with mass spectrometry detection of kinases as described previously; endogenous in cells; host or cells: cell lysate
Particulars: ATM (Atypical), IPI00298306.
Excerpt: as §1

Assay [9] addresses T9, kinases (kinome) (Homo sapiens, UniProt Q13557).
T9 construct: determined in kinobeads assays with mass spectrometry detection of kinases as described previously; endogenous in cells; host or cells: cell lysate
Particulars: CaMK2d (CAMK), IPI00828081.
Excerpt: as §1

Assay [10] concerns the target T10, kinases (kinome) (Homo sapiens, UniProt Q14680).
T10 construct: determined in kinobeads assays with mass spectrometry detection of kinases as described previously; endogenous in cells; host or cells: cell lysate
Particulars: MELK (CAMK), IPI00006471.
Excerpt: as §1

Assay [11] addresses T11, kinases (kinome) (Homo sapiens, UniProt Q15759).
T11 construct: determined in kinobeads assays with mass spectrometry detection of kinases as described previously; endogenous in cells; host or cells: cell lysate
Particulars: p38b (CMGC), IPI00019473.
Excerpt: as §1

For assay [12], the target named is T12, kinases (kinome) (Homo sapiens, UniProt Q9BVS4).
T12 construct: determined in kinobeads assays with mass spectrometry detection of kinases as described previously; endogenous in cells; host or cells: cell lysate
The conditions noted are these: RIOK2 (Atypical), IPI00306406.
Excerpt: as §1

For assay [13], the target named is T13, kinases (kinome) (Homo sapiens, UniProt Q9NSY1).
T13 construct: determined in kinobeads assays with mass spectrometry detection of kinases as described previously; endogenous in cells; host or cells: cell lysate
Particulars: BIKE (Other), IPI00337426.
Excerpt: as §1

Assay [14] addresses T14, kinases (kinome) (Homo sapiens, UniProt Q9NYL2).
T14 construct: determined in kinobeads assays with mass spectrometry detection of kinases as described previously; endogenous in cells; host or cells: cell lysate
Particulars: ZAK (TKL), IPI00329638.
Excerpt: as §1

Assay [15] deals with T15, kinases (kinome) (Homo sapiens, UniProt Q9P2K8).
T15 construct: determined in kinobeads assays with mass spectrometry detection of kinases as described previously; endogenous in cells; host or cells: cell lysate
The conditions noted are these: GCN2 (Other), IPI00163851.
Excerpt: as §1

The target of assay [16] is T16, kinases (kinome) (Homo sapiens, UniProt Q9Y6R4).
T16 construct: determined in kinobeads assays with mass spectrometry detection of kinases as described previously; endogenous in cells; host or cells: cell lysate
The conditions noted are these: MAP3K4 (STE), IPI00386260.
Excerpt: as §1

The target of assay [17] is T17, kinases (kinome) (Homo sapiens, UniProt P49759).
T17 construct: determined in kinobeads assays with mass spectrometry detection of kinases as described previously; endogenous in cells; host or cells: cell lysate
Particulars: CLK1 (CMGC), IPI00915761.
Excerpt: as §1

The target in assay [18] is T18, kinases (kinome) (Homo sapiens, UniProt Q13418).
T18 construct: determined in kinobeads assays with mass spectrometry detection of kinases as described previously; endogenous in cells; host or cells: cell lysate
T18 sequence (Q13418 1-452): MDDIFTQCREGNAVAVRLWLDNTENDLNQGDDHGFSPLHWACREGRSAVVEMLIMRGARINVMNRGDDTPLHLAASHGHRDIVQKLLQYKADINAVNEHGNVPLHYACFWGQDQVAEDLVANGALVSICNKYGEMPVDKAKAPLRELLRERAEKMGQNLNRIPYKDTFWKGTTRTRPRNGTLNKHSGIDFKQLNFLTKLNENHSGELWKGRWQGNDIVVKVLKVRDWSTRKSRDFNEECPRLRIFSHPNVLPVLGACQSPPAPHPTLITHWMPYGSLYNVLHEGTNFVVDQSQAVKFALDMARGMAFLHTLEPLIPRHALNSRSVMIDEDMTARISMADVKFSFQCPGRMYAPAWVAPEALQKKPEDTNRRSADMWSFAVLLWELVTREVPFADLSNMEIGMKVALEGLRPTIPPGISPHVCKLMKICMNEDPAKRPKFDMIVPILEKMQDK
Particulars: ILK (TKL), IPI00013219.
Excerpt: as §1

For assay [19], the target named is T19, kinases (kinome) (Homo sapiens, UniProt O94768).
T19 construct: determined in kinobeads assays with mass spectrometry detection of kinases as described previously; endogenous in cells; host or cells: cell lysate
T19 sequence (O94768 1-372): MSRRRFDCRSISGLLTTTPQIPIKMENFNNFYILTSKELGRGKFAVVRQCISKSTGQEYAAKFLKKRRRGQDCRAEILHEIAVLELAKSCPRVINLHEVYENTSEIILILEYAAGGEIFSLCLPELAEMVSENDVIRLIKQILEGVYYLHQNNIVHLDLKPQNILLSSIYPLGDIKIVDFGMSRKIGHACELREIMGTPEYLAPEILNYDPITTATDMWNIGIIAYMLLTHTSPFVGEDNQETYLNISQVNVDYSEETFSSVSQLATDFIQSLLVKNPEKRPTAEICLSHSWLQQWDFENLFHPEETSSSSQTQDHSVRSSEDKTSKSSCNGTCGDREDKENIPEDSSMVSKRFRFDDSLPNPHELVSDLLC
Particulars: DRAK2 (CAMK), IPI00916930.
Excerpt: as §1

Assay [20] has as its target T20, kinases (kinome) (Homo sapiens, UniProt P06493).
T20 construct: determined in kinobeads assays with mass spectrometry detection of kinases as described previously; endogenous in cells; host or cells: cell lysate
Particulars: CDC2 (CMGC), IPI00026689.
Excerpt: as §1

In assay [21] the target is T21, kinases (kinome) (Homo sapiens, UniProt P36507).
T21 construct: determined in kinobeads assays with mass spectrometry detection of kinases as described previously; endogenous in cells; host or cells: cell lysate
The conditions noted are these: MAP2K2 (STE), IPI00003783.
Excerpt: as §1

For assay [22], the target named is T22, kinases (kinome) (Homo sapiens, UniProt Q13535).
T22 construct: determined in kinobeads assays with mass spectrometry detection of kinases as described previously; endogenous in cells; host or cells: cell lysate
The conditions noted are these: ATR (Atypical), IPI00412298; 0.1 μM ranges.
Excerpt: as §1

In assay [23] the target is T23, kinases (kinome) (Homo sapiens, UniProt Q9BYT3).
T23 construct: determined in kinobeads assays with mass spectrometry detection of kinases as described previously; endogenous in cells; host or cells: cell lysate
The conditions noted are these: STK33 (CAMK), IPI00302351.
Excerpt: as §1

T5 sequence (P49841 whole entry): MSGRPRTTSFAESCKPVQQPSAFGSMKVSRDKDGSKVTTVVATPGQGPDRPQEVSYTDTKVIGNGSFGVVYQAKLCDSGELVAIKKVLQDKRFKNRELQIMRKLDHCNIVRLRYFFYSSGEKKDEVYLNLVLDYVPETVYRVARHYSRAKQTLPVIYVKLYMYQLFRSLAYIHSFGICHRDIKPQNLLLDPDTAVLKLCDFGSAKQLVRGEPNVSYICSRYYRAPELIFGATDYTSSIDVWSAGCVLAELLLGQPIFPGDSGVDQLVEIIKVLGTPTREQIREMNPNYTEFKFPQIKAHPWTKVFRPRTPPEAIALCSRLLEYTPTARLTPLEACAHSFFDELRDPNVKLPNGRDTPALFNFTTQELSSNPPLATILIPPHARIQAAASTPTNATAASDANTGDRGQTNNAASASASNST
T14 sequence (Q9NYL2 whole entry): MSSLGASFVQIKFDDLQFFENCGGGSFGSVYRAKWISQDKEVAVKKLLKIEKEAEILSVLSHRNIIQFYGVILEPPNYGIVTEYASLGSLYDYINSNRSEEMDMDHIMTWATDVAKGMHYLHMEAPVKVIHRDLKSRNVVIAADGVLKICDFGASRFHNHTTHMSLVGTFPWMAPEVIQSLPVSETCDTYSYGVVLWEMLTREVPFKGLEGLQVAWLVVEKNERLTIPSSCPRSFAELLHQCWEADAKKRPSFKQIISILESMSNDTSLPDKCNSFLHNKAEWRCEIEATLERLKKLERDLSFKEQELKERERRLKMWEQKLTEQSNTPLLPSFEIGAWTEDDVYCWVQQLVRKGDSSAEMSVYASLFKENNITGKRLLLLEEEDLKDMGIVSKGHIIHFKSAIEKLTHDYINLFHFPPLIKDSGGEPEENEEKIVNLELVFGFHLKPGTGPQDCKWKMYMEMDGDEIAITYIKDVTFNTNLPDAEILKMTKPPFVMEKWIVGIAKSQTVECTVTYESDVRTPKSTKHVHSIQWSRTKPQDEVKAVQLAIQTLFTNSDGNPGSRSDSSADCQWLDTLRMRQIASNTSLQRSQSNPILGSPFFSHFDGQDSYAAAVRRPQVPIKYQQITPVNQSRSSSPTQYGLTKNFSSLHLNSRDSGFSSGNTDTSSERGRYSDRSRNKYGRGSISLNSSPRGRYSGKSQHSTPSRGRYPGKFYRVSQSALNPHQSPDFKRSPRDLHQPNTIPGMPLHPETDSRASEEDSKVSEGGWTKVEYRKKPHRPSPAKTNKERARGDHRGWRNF
T15 sequence (Q9P2K8 whole entry): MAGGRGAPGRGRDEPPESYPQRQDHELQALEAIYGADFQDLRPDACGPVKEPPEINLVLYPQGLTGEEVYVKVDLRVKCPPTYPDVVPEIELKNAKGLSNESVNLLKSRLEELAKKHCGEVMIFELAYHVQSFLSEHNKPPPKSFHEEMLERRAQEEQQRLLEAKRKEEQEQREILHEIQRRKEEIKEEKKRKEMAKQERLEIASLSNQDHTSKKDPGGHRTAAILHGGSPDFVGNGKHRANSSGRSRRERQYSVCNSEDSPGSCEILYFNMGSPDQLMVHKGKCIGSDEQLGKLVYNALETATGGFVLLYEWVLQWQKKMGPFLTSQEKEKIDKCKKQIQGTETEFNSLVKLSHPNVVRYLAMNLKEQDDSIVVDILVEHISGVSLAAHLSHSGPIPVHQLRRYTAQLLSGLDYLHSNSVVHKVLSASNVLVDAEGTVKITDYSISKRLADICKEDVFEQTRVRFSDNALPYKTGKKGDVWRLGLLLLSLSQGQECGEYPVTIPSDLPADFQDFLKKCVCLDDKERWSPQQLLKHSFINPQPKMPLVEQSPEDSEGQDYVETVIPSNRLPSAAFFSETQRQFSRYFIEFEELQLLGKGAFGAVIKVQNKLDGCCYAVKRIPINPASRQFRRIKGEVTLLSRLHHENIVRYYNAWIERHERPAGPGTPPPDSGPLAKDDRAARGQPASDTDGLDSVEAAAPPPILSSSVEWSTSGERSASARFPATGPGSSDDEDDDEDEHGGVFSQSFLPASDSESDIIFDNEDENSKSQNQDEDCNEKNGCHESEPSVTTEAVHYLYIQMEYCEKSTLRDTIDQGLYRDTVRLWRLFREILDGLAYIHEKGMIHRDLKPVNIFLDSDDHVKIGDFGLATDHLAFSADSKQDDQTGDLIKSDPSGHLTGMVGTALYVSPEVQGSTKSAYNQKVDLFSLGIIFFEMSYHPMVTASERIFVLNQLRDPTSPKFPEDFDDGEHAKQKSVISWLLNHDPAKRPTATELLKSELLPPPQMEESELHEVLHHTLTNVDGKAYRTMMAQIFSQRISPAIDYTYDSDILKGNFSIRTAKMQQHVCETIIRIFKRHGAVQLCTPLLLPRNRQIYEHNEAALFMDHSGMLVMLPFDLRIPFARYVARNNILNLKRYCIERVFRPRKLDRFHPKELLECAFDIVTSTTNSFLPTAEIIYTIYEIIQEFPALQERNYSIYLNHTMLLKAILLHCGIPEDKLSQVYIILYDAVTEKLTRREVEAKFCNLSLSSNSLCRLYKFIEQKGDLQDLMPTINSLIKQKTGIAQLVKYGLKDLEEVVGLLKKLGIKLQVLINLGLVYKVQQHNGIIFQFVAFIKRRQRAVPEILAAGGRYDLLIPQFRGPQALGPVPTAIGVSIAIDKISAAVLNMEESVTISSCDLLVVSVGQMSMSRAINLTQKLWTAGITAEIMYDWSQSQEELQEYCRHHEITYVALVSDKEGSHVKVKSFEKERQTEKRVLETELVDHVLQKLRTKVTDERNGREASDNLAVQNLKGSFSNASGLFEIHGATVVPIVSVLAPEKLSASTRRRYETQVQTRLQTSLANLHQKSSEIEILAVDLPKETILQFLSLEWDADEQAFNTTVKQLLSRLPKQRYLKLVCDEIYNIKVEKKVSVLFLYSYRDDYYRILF
T10 sequence (Q14680 whole entry): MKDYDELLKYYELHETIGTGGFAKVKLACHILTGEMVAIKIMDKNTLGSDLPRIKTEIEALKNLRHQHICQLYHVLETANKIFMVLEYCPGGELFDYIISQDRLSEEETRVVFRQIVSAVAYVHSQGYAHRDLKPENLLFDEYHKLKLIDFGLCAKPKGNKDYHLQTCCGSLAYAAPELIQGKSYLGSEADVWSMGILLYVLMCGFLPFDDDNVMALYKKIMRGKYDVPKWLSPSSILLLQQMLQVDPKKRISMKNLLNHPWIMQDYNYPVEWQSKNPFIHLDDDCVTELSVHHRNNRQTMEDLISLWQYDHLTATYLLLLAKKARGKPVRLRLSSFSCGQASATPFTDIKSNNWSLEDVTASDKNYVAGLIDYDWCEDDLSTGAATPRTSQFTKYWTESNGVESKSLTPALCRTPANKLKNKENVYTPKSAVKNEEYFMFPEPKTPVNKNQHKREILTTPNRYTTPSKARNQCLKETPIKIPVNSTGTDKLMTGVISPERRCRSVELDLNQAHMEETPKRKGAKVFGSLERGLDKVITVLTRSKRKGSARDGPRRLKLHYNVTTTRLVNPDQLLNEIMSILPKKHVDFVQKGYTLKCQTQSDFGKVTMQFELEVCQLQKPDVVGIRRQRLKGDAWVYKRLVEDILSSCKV
T3 sequence (P06241 whole entry): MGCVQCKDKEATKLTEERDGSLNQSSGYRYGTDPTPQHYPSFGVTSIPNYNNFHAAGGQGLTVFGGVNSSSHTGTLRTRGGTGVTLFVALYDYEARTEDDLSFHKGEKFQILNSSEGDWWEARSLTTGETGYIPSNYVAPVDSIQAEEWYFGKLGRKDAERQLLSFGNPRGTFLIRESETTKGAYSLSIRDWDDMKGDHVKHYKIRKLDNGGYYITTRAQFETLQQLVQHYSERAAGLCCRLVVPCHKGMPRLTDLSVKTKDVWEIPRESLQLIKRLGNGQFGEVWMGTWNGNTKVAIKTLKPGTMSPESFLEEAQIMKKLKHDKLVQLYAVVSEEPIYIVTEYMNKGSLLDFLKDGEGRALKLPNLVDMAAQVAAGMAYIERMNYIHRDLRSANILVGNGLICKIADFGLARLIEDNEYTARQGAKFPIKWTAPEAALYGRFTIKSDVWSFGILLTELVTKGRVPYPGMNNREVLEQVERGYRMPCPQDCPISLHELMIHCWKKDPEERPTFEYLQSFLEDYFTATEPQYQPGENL
T6 sequence (P50613 whole entry): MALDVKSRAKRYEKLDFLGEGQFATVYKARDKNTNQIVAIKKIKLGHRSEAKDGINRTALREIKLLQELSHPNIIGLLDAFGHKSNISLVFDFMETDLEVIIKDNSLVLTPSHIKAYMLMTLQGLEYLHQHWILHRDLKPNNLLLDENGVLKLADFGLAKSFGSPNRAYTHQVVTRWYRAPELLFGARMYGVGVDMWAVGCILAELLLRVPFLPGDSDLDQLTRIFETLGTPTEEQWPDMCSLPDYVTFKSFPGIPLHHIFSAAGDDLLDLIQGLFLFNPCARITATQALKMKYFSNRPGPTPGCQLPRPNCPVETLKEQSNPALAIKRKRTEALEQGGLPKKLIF
T7 sequence (P53667 whole entry): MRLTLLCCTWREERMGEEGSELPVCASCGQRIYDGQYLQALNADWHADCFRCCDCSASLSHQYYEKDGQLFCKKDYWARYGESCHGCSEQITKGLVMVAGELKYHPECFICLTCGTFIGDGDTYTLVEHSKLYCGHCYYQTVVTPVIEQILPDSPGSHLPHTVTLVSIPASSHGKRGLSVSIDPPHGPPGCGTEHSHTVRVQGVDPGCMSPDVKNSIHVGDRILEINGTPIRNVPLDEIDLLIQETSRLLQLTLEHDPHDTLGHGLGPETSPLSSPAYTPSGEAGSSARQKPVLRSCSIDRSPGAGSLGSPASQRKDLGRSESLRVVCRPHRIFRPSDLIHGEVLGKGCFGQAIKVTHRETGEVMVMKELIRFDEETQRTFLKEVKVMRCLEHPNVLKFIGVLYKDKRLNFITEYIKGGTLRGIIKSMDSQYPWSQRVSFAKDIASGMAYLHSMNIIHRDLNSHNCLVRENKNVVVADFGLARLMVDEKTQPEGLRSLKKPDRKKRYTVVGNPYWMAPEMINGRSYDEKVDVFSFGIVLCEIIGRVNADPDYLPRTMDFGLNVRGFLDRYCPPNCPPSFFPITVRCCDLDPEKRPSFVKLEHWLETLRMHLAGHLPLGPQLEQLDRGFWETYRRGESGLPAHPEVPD

One may read the IC50 as the point on the concentration scale where inhibition reaches its midpoint. As to `C[C@H]1COCCN1c1cc(-c2ccccc2S(C)(=O)=O)nc(-c2ccc(NC(=O)NC3CC3)cc2)n1` [Example 6, (S)-1-cyclopropyl-3-(4-(4-(3-methylmorpholino)-6-(2-(methylsulfonyl)phenyl)pyrimidin-2-yl)phenyl)urea], the IC50 in [1], in [2], in assay [3], in assay [4], in assay [5] and in assay [6] was more than 10 µM throughout. The concentration for half-maximal inhibition (IC50) in assay [7], in assay [8], in assay [9], in assay [10], in assay [11] and in [12] was more than 10 µM each time. Moreover, the IC50 in assay [13], in assay [14], in assay [15] and in assay [16] was more than 10 µM each time.

`CCNC(=O)Nc1ccc(-c2cc(-c3ccccc3C#N)nc(N3CCOC[C@@H]3C)n2)cc1` [Example 8, (S)-1-(4-(6-(2-cyanophenyl)-2-(3-methylmorpholino)pyrimidin-4-yl)phenyl)-3-ethylurea]: the IC50 in assay [1], in assay [3], in assay [4], in assay [17], in assay [5] and in assay [6] was more than 10 µM each time. In addition, the IC50 in assay [7], in [8], in assay [18], in [9], in assay [10] and in assay [12] was more than 10 µM each time. Further, the IC50 in assay [13], in [14] and in [16] was more than 10 µM in each case.

As for `C[C@H]1COCCN1c1nc(-c2ccc(NC(=O)NC3CC3)cc2)cc(-c2cc(F)ccc2S(C)(=O)=O)n1` [Example 40, (S)-1-cyclopropyl-3-(4-(6-(5-fluoro-2-(methylsulfonyl)phenyl)-2-(3-methylmorpholino)pyrimidin-4-yl)phenyl)urea], the IC50 in [1], in [19], in [3], in assay [20], in [21] and in assay [4] was more than 10 µM in each case. Further, the IC50 in [17], in assay [5], in assay [6], in [7], in assay [8] and in assay [18] was more than 10 µM throughout. Also, the IC50 was 1.1 to 1.2 µM in assay [22]; more than 10 µM in assay [9]; more than 10 µM in assay [10]; more than 10 µM in assay [12]; more than 10 µM in [23]; more than 10 µM in [13]. The IC50 in [14] and in [16] was more than 10 µM throughout.

Take `C[C@H]1COCCN1c1cc(-c2ccccn2)nc(-c2ccc(NC(=O)NCCO)cc2)n1` [Example 43, (S)-1-(2-hydroxyethyl)-3-(4-(4-(3-methylmorpholino)-6-(pyridin-2-yl)pyrimidin-2-yl)phenyl)urea]: the IC50 in assay [1], in assay [3], in assay [21], in assay [17], in assay [5] and in assay [6] was more than 10 µM in each case. The IC50 in [7], in [8], in assay [18], in assay [22], in assay [9] and in [10] was more than 10 µM throughout. Moreover, the IC50 in assay [11], in assay [12], in assay [13], in [14], in [15] and in [16] was more than 10 µM throughout.

On to `C[C@H]1COCCN1c1nc(-c2ccc(NC(=O)NC3CC3)cc2)cc(-c2cccnc2S(C)(=O)=O)n1` [Example 46, (S)-1-cyclopropyl-3-(4-(2-(3-methylmorpholino)-6-(2-(methylsulfonyl)pyridin-3-yl)pyrimidin-4-yl)phenyl)urea], for which the IC50 in assay [1], in [19], in assay [3], in assay [20], in assay [21] and in assay [4] was more than 10 µM throughout. Besides, the IC50 in [17], in assay [5], in [6], in assay [7], in [8] and in assay [22] was more than 10 µM throughout. For the same molecule, the IC50 in [9], in [10], in [12], in assay [23], in [13] and in [14] was more than 10 µM each time. Further, the IC50 in assay [15] and in assay [16] was more than 10 µM in each case.

As for `C[C@H]1COCCN1c1nc(-c2ccc(NC(=O)N[C@H]3CCC[C@@H]3O)cc2)cc(-c2cc(F)ccc2S(C)(=O)=O)n1` [Example 76, 1-(4-(6-(5-fluoro-2-(methylsulfonyl)phenyl)-2-((S)-3-methylmorpholino)pyrimidin-4-yl)phenyl)-3-((1S,2S)-2-hydroxycyclopentyl)urea], the IC50 in assay [1], in assay [2], in [3], in assay [20], in [21] and in assay [4] was more than 10 µM each time. Also, the IC50 in assay [5], in assay [6], in assay [7], in assay [8], in [18] and in [22] was more than 10 µM throughout. Moreover, the IC50 in assay [9], in assay [10], in assay [12], in [13], in assay [14] and in [16] was more than 10 µM in each case.
